These results are taken from patent US10028992B2, “Methods of treating muscular dystrophy” (BOARD OF REGENTS OF THE NEVADA SYSTEM OF HIGHER EDUCATION …, priority 2012, dated 2018).

Structures are written as SMILES.

The experiment concerns α7 integrin promoter. Kind of experiment: muscle cell-based assay: α7βgal+/− myoblasts/myotubes, LacZ reporter, β-galactosidase cleavage of FDG. Further details: species or system mouse; Results in α7+/− β-galactosidase assay: scale not given here. As to conditions: Myoblasts. An outline of the steps: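 Fluorescein generated from FDG by β-galactosidase reports α7 integrin promoter activity in differentiated myoblasts from α7+/− LacZ knock-in pups. Screening hits then went to dose-response, western blotting and a myostatin counterscreen.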

`O=C1c2ccccc2C(=O)C1(CC(O)O)c1ccccc1` [drawing 682]: the “Results in α7+/− β-galactosidase assay” value is 0.2496 (0.5 uM); 0.3517 (1 uM); −0.03545 (5 uM); −0.1644 (10 uM); −0.1709 (20 uM); −0.2409 (40 uM).
In the case of `Cc1ccc(Cn2nnc3c(O)nc(C4CCCN(C(=O)c5ccco5)C4)nc32)cc1` (stereo not drawn) [drawing 683], the “Results in α7+/− β-galactosidase assay” value by setting is: (0.5 uM) 0.09519; (1 uM) 0.1784; (5 uM) −0.02152; (10 uM) −0.00668; (20 uM) −0.00332; (40 uM) 0.06402.
`Cc1ccc(NS(=O)(=O)c2ccc(-c3ccc(O)nn3)o2)c(C)c1` [drawing 685]: the “Results in α7+/− β-galactosidase assay” value is listed as 0.09197 (0.5 uM); 0.1114 (1 uM); −0.00204 (5 uM); −0.06144 (10 uM); 0.2389 (20 uM); 0.2674 (40 uM).
For `CCCCN1CC(=O)N2Cc3[nH]c4ccccc4c3C[C@H]2C1=O` [drawing 686], the “Results in α7+/− β-galactosidase assay” value runs as follows: (0.5 uM) 0.1518; (1 uM) 0.2222; (5 uM) −0.00341; (10 uM) −0.04523; (20 uM) 0.1761; (40 uM) 0.2299.
On to `CCC(CC)C(=O)Nc1c(C(=O)N2CCN(c3ccccc3)CC2)oc2ccccc12` [drawing 687], for which the “Results in α7+/− β-galactosidase assay” value is, setting by setting: (0.5 uM) 0.02952; (1 uM) 0.08671; (5 uM) 0.02479; (10 uM) −0.0251; (20 uM) 0.2442; (40 uM) 0.3404.
Regarding `Cc1nc(/C=C2\C(=O)Nc3ccccc32)c[nH]1` [drawing 688], the “Results in α7+/− β-galactosidase assay” value is 0.0102 (0.5 uM); 0.003171 (1 uM); 0.1245 (5 uM); −0.03494 (10 uM); 0.1171 (20 uM); 0.02067 (40 uM).
In the case of `O=C(NCCc1ccc(Cl)cc1)C1CCCO1` (stereo not drawn) [drawing 689], the “Results in α7+/− β-galactosidase assay” value came to 0.03412 (0.5 uM); 0.00045 (1 uM); 0.2918 (5 uM); 0.03423 (10 uM); 0.08798 (20 uM); 0.003802 (40 uM).
As to `CCNC(=O)C(=O)Nc1cc2c3c(c1)CCN3C(=O)CC2` [drawing 690], the “Results in α7+/− β-galactosidase assay” value stood at 0.05836 (0.5 uM); 0.1657 (1 uM); 0.2771 (5 uM); 0.06388 (10 uM); 0.05069 (20 uM); 0.005609 (40 uM).
Consider `Cc1cccc(NCC(=O)N/N=C/c2ccccn2)c1` [drawing 691], for which the “Results in α7+/− β-galactosidase assay” value is, setting by setting: (0.5 uM) 0.1681; (1 uM) 0.3046; (5 uM) 0.3928; (10 uM) 0.1778; (20 uM) −0.1319; (40 uM) −0.4037.
On to `COc1ccc(CN2CCNC(=O)C2CC(=O)NCCc2c[nH]c3ccccc23)c(OC)c1` (stereo not drawn) [drawing 692], for which the “Results in α7+/− β-galactosidase assay” value (0.5 uM) amounted to 0.0135; the “Results in α7+/− β-galactosidase assay” value (1 uM) is given as 0.04793; the “Results in α7+/− β-galactosidase assay” value (5 uM) was determined as 0.2102; the “Results in α7+/− β-galactosidase assay” value (10 uM) is −0.04499; the “Results in α7+/− β-galactosidase assay” value (20 uM) is −0.02608; the “Results in α7+/− β-galactosidase assay” value (40 uM) is on record as −0.01274.
Take `O=c1c2cc(-c3ccccc3)sc2nc2n1N=C(c1ccccc1)CS2` [drawing 693]: the “Results in α7+/− β-galactosidase assay” value (0.5 uM) is given as −0.04703; the “Results in α7+/− β-galactosidase assay” value (1 uM) is listed as −0.001; the “Results in α7+/− β-galactosidase assay” value (5 uM) was determined as 0.1857; the “Results in α7+/− β-galactosidase assay” value (10 uM) came to 0.01009; the “Results in α7+/− β-galactosidase assay” value (20 uM) was 0.0113; the “Results in α7+/− β-galactosidase assay” value (40 uM) is listed as 0.00476.
On to `Nc1ncnc(NCc2ccccc2)c1[N+](=O)[O-]` [drawing 694], for which the “Results in α7+/− β-galactosidase assay” value runs as follows: (0.5 uM) 0.01911; (1 uM) 0.00831; (5 uM) 0.2463; (10 uM) −0.04019; (20 uM) −0.00635; (40 uM) 0.02312.
For `O=CN1CCN(C(=O)CC(c2ccccc2)c2cc(Br)ccc2O)CC1` (stereo not drawn) [drawing 695], the “Results in α7+/− β-galactosidase assay” value by setting is: (0.5 uM) 0.1751; (1 uM) 0.03283; (5 uM) 0.07723; (10 uM) −0.1323; (20 uM) 0.00725; (40 uM) −0.04551.
As to `Cc1ccc2c(c1)/C(=C/c1ccco1)C(=O)N2` [drawing 696], the “Results in α7+/− β-galactosidase assay” value runs as follows: (0.5 uM) 0.2035; (1 uM) 0.02005; (5 uM) 0.2293; (10 uM) 0.07554; (20 uM) 0.1241; (40 uM) 0.1026.
On to `O=C1CCC(C(=O)N2CCSCC2)CN1Cc1ccc(Cl)cc1` (stereo not drawn) [drawing 697], for which the “Results in α7+/− β-galactosidase assay” value is 0.1419 (0.5 uM); −0.02657 (1 uM); 0.2626 (5 uM); 0.4599 (10 uM); 0.2652 (20 uM); 0.222 (40 uM).
In the case of `c1ccc(-c2cn3c4c(sc3n2)CCCC4)cc1` [drawing 698], the “Results in α7+/− β-galactosidase assay” value is, setting by setting: (0.5 uM) 0.1572; (1 uM) 0.06589; (5 uM) 0.03743; (10 uM) 0.2239; (20 uM) −0.06232; (40 uM) −0.1797.
For `COc1ccccc1CC(=O)Nc1cc(S(=O)(=O)N2CCOCC2)ccc1N1CCOCC1` [drawing 699], the “Results in α7+/− β-galactosidase assay” value is reported as 0.122 (0.5 uM); −0.02918 (1 uM); 0.0982 (5 uM); 0.2162 (10 uM); −0.2175 (20 uM); −0.3265 (40 uM).
